Experimental findings from patent US20230117034A1, “PYRAZOLOTRIAZINES” (Bayer Aktiengesellschaft, priority 2019, published 2023) are described below.

Each structure is given as a SMILES string.

Assay [1] has as its system BRCA1 mRNA expression in CAL-120 cells. Description: qRT-PCR assay: BRCA1 mRNA expression in CAL-120. The format is cell-based. The conditions noted are these: Homo sapiens; Inhibition of BRCA1 mRNA expression in CAL-120 cells; median; read-out: RTqPCR-CAL-120, IC50, BRCA1 (median). As to the method: 3. qRT-PCR Assay: BRCA, ATR, MCL1 in MDA-MB-231, CAL-120
Tissue cultured human MDA-MB-231 human breast cancer cells were plated in 500 microL per well at 200,000 cells/well in a 24 well microtiter plate. After 24 h, the cells were exposed continuously for 24 h to test substances (substances were added with Tecan HP 0300 Dispenser). RNA was prepared using Qiagen RNeasy MiniKit (#74106), RNA was quantified using a NanoDrop Equipment, and 600 nano gamms of RNA was coverted to cDNA using a SuperScript VILO kit (Thermofisher #11755050) followed by qPCR amplification. BRCA1 and ATR gene expression was measured by RT-qPCR and normalised to GAPDH housekeeping gene expression. qPCR primer sets have been purchased from Thermo Fisher Scientific/Applied Biosystems: BRCA1, #Hs 01556193; ATR, #Hs 00992123; GAPDH, #Hs 03929097.
On the technique in general: Quantitative PCR measures a nucleic acid by following its amplification.

Assay [2] concerns the target T1, CDK12 protein level in CAL-120 breast cancer cells (Homo sapiens, UniProt Q9NYV4).
T1 construct: endogenous in cells; host or cells: CAL-120 human breast cancer cells (DSMZ ACC 459)
Description: CDK12 protein level: Protein Simple (CDK12, CAL-120). The conditions noted are these: CAL-120 cells, 18 h with compound, CDK12/HSP90 peak area ratio vs vehicle, median, read-out: CDK12 protein level in CAL-120 breast ca cells, DC50-[mol/l] (median). The format is cell-based. As to the method: CAL-120 human breast cancer cells (DSMZ ACC 459) were seeded at 300,000 cells/well in 6-well plates containing 2 mL of growth medium (DMEM, 10% FCS, glutamine) and incubated for 24 h at 37° C. in an humidified incubator. Test compounds were added at various concentrations, control wells received solvent (DMSO), and the plates were incubated for another 18 h at 37° C. Cells were washed 2 times with PBS and lysed in 75 microL lysis buffer (MSD-Puffer (MSD, #R60TX-2), +1% 505S+PhosSTOP (Roche #04906837001)+complete mini (Roche #04693159001)) by scraping. The lysates were pushed 2 times through Qiashedders followed by centrifugation at 14,000 rpm for 30-50 sec. The supernatant was stored at −20° C. Proteins were separated by applying 0.4 microgramms of protein lysate to Protein Simple 66-440 kDa (Protein Simple #SM-S002) size assay columns on a PEGGY SUE or SALLY SUE equipment according to the supplier's manual. CDK12 and HSP90 (loading control) were detected using anti-human CDK12 antibody (Cell Signaling Technologies (CST) #11793) at 1:25 dilution and anti-human HSP90 antibody (CST #4877) at 1:5,000 dilution. CDK12 and HSP90 peak areas were determined using Protein Simple Compass software. Ratio of CDK12/HSP90 peak areas were calculated for each sample, and […] values (degrading concentration to achieve 50% reduction relative to vehicle treated control) were determined by means of a 4 parameter fit.

T1 sequence (Q9NYV4 whole entry): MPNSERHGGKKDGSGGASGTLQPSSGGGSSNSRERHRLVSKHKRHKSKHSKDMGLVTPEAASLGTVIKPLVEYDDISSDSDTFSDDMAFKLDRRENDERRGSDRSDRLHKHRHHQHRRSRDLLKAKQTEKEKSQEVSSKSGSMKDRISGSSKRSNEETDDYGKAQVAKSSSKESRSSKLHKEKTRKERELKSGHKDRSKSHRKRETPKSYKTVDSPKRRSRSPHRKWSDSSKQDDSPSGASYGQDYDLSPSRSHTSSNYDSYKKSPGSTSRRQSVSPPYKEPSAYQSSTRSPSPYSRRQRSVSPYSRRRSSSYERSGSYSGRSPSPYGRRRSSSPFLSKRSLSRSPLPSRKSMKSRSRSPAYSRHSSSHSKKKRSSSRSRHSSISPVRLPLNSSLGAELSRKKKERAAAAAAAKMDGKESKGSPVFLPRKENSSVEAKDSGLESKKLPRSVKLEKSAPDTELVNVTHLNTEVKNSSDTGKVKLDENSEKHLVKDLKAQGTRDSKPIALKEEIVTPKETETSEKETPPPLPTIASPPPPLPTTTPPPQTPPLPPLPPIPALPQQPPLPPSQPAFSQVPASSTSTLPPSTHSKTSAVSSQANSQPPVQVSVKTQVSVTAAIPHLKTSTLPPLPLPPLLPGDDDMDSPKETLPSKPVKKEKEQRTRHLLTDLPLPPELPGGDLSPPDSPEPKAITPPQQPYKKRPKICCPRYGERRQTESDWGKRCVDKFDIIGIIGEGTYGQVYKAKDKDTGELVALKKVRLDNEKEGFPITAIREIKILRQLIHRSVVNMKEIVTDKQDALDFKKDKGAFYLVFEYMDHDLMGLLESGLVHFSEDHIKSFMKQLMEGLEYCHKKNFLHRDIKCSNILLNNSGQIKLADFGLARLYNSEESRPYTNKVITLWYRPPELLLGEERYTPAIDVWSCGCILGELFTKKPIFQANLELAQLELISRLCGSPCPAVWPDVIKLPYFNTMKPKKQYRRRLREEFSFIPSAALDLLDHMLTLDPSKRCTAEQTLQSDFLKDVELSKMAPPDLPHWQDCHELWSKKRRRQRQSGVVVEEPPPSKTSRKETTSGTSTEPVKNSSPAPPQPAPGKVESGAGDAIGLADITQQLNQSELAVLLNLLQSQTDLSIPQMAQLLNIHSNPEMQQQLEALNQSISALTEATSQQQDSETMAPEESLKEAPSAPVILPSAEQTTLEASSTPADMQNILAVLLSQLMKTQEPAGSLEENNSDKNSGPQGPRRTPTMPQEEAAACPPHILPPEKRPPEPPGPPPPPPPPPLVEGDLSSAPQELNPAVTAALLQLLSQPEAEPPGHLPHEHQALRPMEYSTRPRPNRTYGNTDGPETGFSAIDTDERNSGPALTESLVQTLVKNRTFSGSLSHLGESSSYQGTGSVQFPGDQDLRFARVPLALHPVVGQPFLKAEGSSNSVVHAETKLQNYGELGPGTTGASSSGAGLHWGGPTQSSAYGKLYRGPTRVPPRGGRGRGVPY
T1 sequence (O75909 whole entry partner): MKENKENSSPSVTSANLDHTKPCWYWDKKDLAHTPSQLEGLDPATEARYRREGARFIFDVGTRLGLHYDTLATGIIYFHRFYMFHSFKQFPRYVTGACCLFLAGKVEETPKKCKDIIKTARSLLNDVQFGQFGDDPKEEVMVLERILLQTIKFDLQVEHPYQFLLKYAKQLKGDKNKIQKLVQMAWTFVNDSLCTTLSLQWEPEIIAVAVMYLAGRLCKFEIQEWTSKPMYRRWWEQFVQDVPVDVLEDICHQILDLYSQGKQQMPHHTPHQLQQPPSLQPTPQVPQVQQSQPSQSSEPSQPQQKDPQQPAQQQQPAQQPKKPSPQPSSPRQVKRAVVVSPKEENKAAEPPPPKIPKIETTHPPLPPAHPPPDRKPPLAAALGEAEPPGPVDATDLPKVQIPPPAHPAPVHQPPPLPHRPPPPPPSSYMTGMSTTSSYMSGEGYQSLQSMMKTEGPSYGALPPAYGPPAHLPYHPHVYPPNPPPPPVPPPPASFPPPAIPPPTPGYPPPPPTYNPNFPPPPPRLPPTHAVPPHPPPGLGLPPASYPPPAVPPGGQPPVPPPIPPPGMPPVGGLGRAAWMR

As to `Cc1ccnc2[nH]c(CNc3nc(N4CCOCC4)nc4c(Br)cnn34)nc12` [Example 20, 8-bromo-N-[(7-methyl-3H-imidazo[4,5-b]pyridin-2-yl)methyl]-2-(morpholin-4-yl)pyrazolo[1,5-a][1,3,5]triazin-4-amine], the concentration for half-maximal inhibition (IC50) in assay [1] worked out at 17.7 nM. The DC50 in assay [2] turned out to be 2.6 nM. For `CC1CN(C)CCN1c1nc(NCc2nc3ccccc3[nH]2)n2ncc(Br)c2n1` (single isomer, unassigned; enantiomer 1) [Example 260, N-(1H-benzimidazol-2-ylmethyl)-8-bromo-2-[(2R or S)-2,4-dimethylpiperazin-1-yl]pyrazolo[1,5-a][1,3,5]triazin-4-amine (Enantiomer 1)], the DC50 in assay [2] was below 1 nM. Consider `Brc1cnn2c(NCc3ncc(-c4ccccc4)[nH]3)nc(N3CCOCC3)nc12` [Example 23, 8-bromo-2-(morpholin-4-yl)-N-[(5-phenyl-1H-imidazol-2-yl)methyl]pyrazolo[1,5-a][1,3,5]triazin-4-amine], for which, in assay [2], the DC50 was below 1 nM. Take `Brc1cnn2c(NCc3nc4c([nH]3)CCCC4)nc(N3CCOCC3)nc12` [Example 21, 8-bromo-2-(morpholin-4-yl)-N-[(4,5,6,7-tetrahydro-1H-benzimidazol-2-yl)methyl]pyrazolo[1,5-a][1,3,5]triazin-4-amine]: the half-maximal inhibitory concentration (IC50) in assay [1] stood at 211 nM. Also, the DC50 in assay [2] is above 100 nM.

For the compound `Fc1ccc2[nH]c(CNc3nc(N4CCOCC4)nc4c(Br)cnn34)nc2c1F` [Example 25, 8-bromo-N-[(4,5-difluoro-1H-benzimidazol-2-yl)methyl]-2-(morpholin-4-yl)pyrazolo[1,5-a][1,3,5]triazin-4-amine], in assay [2], the DC50 was below 1 nM. As to `Brc1cnn2c(NCc3nnc(-c4ccccc4)[nH]3)nc(N3CCOCC3)nc12` [Example 24, 8-bromo-2-(morpholin-4-yl)-N-[(5-phenyl-4H-1,2,4-triazol-3-yl)methyl]pyrazolo[1,5-a][1,3,5]triazin-4-amine], the IC50 in assay [1] came to 34.5 nM. In addition, the DC50 in assay [2] came to 9.33 nM. On to `Brc1cnn2c(NCc3nc4ccncc4[nH]3)nc(N3CCOCC3)nc12` [Example 22, 8-bromo-N-[(3H-imidazo[4,5-c]pyridin-2-yl)methyl]-2-(morpholin-4-yl)pyrazolo[1,5-a][1,3,5]triazin-4-amine], for which the DC50 in assay [2] was found to be 118 nM.

By IC50 is commonly meant the concentration that gives 50% inhibition.
